Data from patent publication US10828372B2, “Compositions and methods for the inhibition of fibrosis” (WISCONSIN ALUMNI RESEARCH FOUNDATION, priority 2017, dated 2020).
Where no end group is shown, it is not given here.

Tests used:
human plasma FN = assay: Isothermal Titration calorimetry (ITC) of peptide binding to fibronectin; conditions: pH 7.4 PBS, 25° C., triplicate
Method: Isothermal Titration calorimetry (ITC): ITC experiments were performed using a VP-ITC microcalorimeter (MicroCal, LLC) with a cell volume of 2.2 mL. In a typical experiment, the cell was filled with 1.4 mL of 2 μM human plasma FN and the syringe was filled with 1 mL of 28 μM FUD or PEG-FUD peptides. The temperature was set to 25° C. The titration experiment was performed in 39 injections (1×1, 4×4, and 34×8 μL) delivered in 120 sec intervals. Prior to injection, both FN and the peptides were dialyzed in separate dialysis bags overnight into the same PBS buffer (pH 7.4) solution. Routine analysis involved discarding of the first data point and subtraction of peptide into PBS buffer control run. Data were fit using one set of sites model Lavenberg-Marquardt nonlinear regression in Origin 7.0.
The binding of 10 kDa, 20 kDa, and 40 kDa PEG-FUD to FN was studied using Isothermal Titration calorimetry (ITC). This technique was used to determine the thermodynamic parameters as well as the binding constant (Kd) of the interaction. The peptide was injected into a human plasma FN solution in PBS at pH 7.4 and 25° C. in triplicate runs. […] A Kd of 6 (±3) nM was detected for FUD:FN. […] Similar entropy change of −65 (±3) cal/mol, −74 (±7) cal/mol, −66 (±7) cal/mol, and −73 (±2) and enthalpy change of −31 (±1) kcal/mol, −34 (±2) kcal/mol, −30 (±1) kcal/mol, and −32.5 (±0.5) kcal/mol were detected for the interaction of FUD and 10 kDa, 20 kDa, and 40 kDa PEG-FUD with FN, respectively. […] This observation is contrary to the expectation of PEG attachment diminishing a drug's affinity for its binding partner and presents an unexpected but desired feature of the PEG-FUD peptide.

[1] = tested on: EDA-containing fibronectin; assay: Endogenous (cellular) fibronectin assembly assay, human fibroblasts (AH1F); type: cell-based; conditions: doses up to 500 nM; for IC50: endogenous EDA+-fibronectin, human fibroblasts, read-out: IC50 of fibronectin assembly inhibition
Text: (§1) Endogenous (cellular) fibronectin assembly assay: This immunochemical assay measures the ECM incorporation of EDA-containing fibronectin synthesized by human fibroblasts and human proximal tubular epithelial cells. Human proximal epithelial cells, HK-2 cells, were obtained from ATCC (CRL-2190). The EDA+ fibronectin is a splice variant synthesized and secreted by a variety of cells mostly during embryonic development and during wound healing, ECM remodeling, or fibrotic conditions in the adult. Fibroblasts (AH1F) were cultured in DMEM (Gibco) containing 10% fetal calf serum, and human proximal tubular epithelial cells (HK-2) were cultured in keratinocyte serum free medium (KSFM, containing pituitary extract and rEGF, Invitrogen/Thermo Fisher). Both media also contained 2.5 mM glutamine, 100 IU/ml penicillin, and 100 μg/ml streptomycin. Confluent cells were trypsinized and resuspended in DMEM containing 2% FCS in DMEM for AH1F cells or KSFM for HK-2 cells, at densities that allow delivery of 60,000 AH1F or 20,000 HK-2 cells in 90 μl per well in black-walled, flat transparent bottom 96-well plates. Cells were incubated for 2 h at 37° C. with 5% CO2 and checked microscopically for spreading and confluence. Peptides were then added in 10 μl volumes at 10-fold the desired final concentration. Cell monolayers in microplates were incubated overnight in a humidified 37° C., 5% CO2 chamber. After approximately 22 h, 10 μl of AlamarBlue® was added to the cell monolayers and incubated at 37° C. for 2 h to assess cell viability. Fluorescence of AlamarBlue® was read at 555 nm excitation and 585 nm emission. Microplates were washed twice with HBSS containing Ca^2+, Mg^2+ and 50 μl/well of 4% paraformaldehyde (PFA) in PBS was then added for 10 min at room temperature. […] Similar to the measurement of exogenous A488-FN fluorescence, A488-EDA fluorescence was read using microplate reader equipped with bottom-readout capabilities at 485 nm excitation and 525 nm emission. Fluorescence of wells to which A488-IgG was added, i.e., background green fluorescence from non-specific IgG binding and from the cell monolayer was subtracted from fluorescence values of wells incubated with A488-EDA. Data is presented for fibronectin fibrillogenesis or cell viability as percent of fluorescence values (AlexaFluor® 488 fluorescence or AlamarBlue®, respectively) for wells with no peptides.
(§2) To determine whether PEG-FUD retained its ability to inhibit fibronectin fibrillogenesis, PEG-FUD and FUD were compared in cell-based fibronectin matrix assembly assays. The ability of PEG-FUD to inhibit the incorporation of exogenous fibronectin derived from plasma and also of fibronectin endogenously produced by the cultured cells was measured, since fibrosis is likely to contain fibronectin from both sources. […]

[2] = tested on: EDA-containing fibronectin; assay: Endogenous (cellular) fibronectin assembly assay, human proximal tubular epithelial cells (HK-2); type: cell-based; conditions: doses up to 500 nM; for IC50: endogenous EDA+-fibronectin, human proximal tubular epithelial cells, read-out: IC50 of fibronectin assembly inhibition
Text: as §1, §2

[3] = tested on: human proximal tubular epithelial cells (HK-2); assay: Cell viability of proximal tubular epithelial cells (AlamarBlue); type: cell-based; conditions: doses up to 500 nM
Text: Endogenous (cellular) fibronectin assembly assay: This immunochemical assay measures the ECM incorporation of EDA-containing fibronectin synthesized by human fibroblasts and human proximal tubular epithelial cells. Human proximal epithelial cells, HK-2 cells, were obtained from ATCC (CRL-2190). The EDA+ fibronectin is a splice variant synthesized and secreted by a variety of cells mostly during embryonic development and during wound healing, ECM remodeling, or fibrotic conditions in the adult. […] Fluorescence of AlamarBlue® was read at 555 nm excitation and 585 nm emission. […] Similar to the measurement of exogenous A488-FN fluorescence, A488-EDA fluorescence was read using microplate reader equipped with bottom-readout capabilities at 485 nm excitation and 525 nm emission. Fluorescence of wells to which A488-IgG was added, i.e., background green fluorescence from non-specific IgG binding and from the cell monolayer was subtracted from fluorescence values of wells incubated with A488-EDA. Data is presented for fibronectin fibrillogenesis or cell viability as percent of fluorescence values (AlexaFluor® 488 fluorescence or AlamarBlue®, respectively) for wells with no peptides.

breast cancer = assay: Murine models of breast cancer; conditions: mouse, in vivo
UUO kidneys = assay: Unilateral Ureteral Obstruction (UUO) model of kidney fibrosis; type: in vivo, mouse; conditions: compared to saline-treated UUOs

Sequence of EDA-containing fibronectin (P02751 32-608 limits assumed): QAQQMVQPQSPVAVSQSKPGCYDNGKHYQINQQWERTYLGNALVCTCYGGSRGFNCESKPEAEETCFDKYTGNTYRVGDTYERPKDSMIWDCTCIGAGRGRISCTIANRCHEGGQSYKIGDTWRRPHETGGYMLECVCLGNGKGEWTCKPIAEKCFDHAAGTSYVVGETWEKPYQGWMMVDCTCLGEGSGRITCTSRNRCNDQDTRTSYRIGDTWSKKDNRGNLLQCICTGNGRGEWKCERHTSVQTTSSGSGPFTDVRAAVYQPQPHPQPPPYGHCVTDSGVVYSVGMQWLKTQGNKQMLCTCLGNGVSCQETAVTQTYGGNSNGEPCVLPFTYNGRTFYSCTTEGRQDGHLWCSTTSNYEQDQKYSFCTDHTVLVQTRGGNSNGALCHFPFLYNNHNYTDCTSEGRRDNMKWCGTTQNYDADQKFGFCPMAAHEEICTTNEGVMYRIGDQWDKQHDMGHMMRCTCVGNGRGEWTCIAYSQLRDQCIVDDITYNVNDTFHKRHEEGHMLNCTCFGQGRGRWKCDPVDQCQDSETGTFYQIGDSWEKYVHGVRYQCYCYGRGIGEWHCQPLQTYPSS
Sequence of human plasma FN (P02751 32-608 limits assumed): as above

Substance | Kd (human plasma FN) [nM] | inhibition of assembly of cellular fibronectin by fibroblasts [1] [%] | IC50 [1] [nM] | inhibition of fibronectin assembly by proximal tubular epithelial cells [2] [%] | IC50 [2] [nM] | human proximal tubular epithelial cell viability [3] | effect on tumor volume (breast cancer) | decrease of fibronectin in ECM fractions (immunoblot, normalized to H3) (UUO kidneys)
FUD: 49 amino acid FUD peptide, SEQ ID NO: 1, recombinantly expressed, His-tag removed; inhibitor of fibronectin fibrillogenesis (KDQSPLAGESGETEYITEVYGNQQNPVDIDKKLPNETGFSGNMVETEDT; human) [reference compound] | 6 | 70 | ~30 | 50 | ~30 | approximately 100% | inhibit tumor volume | approximately 60%
PEG-FUD: PEGylated FUD prepared as in Example 1, PEG size not stated; approximately 27 kDa by mass spectrometry, likely the 20 kDa conjugate (KDQSPLAGESGETEYITEVYGNQQNPVDIDKKLPNETGFSGNMVETEDT; not fully specified (N-terminus); also: PEG size not given here) | ~10 | 70 | ~30 | 50 | ~30 | approximately 100% | inhibit tumor volume | approximately 80%
